Laboratory results taken from patent US20110178171A1, “COMPOUNDS FOR CANCER THERAPY” (China Medical University, priority 2010, published 2011).

Assays:
[1] = test system: lung cancer cell line A549; test: MTT growth inhibition assay, A549; type: cell-based, human; details: A549, lung adenocarcinoma
Method: (§1) The results were determined by three independent experiments.
(§2) Besides, the above assay was also conducted on gastric cancer cell line NCI-N87, liver cancer cell line HepG2 and J5, lung cancer cell line A549, and oral cancer cell line OECM-1.

[2] = test system: LNCaP xenografts; test: Antitumor activity in vivo, LNCaP xenograft; design: species or system mice
Method: Xenograft mice as a model system to study cytotoxicity effect of isochaihulactone in vivo: the implantation of cancer cells (LNCaP) were carried out similarly to previous reports. Female congenital athymic BALB/c nude (nu/nu) mice were purchased from National Sciences Council (Taipei, Taiwan) and all procedures were performed in compliance with the standard operating procedures of the Laboratory Animal Center of China Medical University (Taichung, Taiwan). All experiments were carried out using 6-8-week old mice weighing 18-22 g. The animals were s.c. implanted with 1×10^7 cell sinto the back of mice. When the tumor reached 80-120 mm3 in volume, animals were divided randomly into control and test groups consisting of six mice per group (day 0). Daily s.c. administration of z-K8, dissolved in a vehicle of 20% Tween 80 in normal saline (v/v) was performed from days 0 to 4 far from the inoculated tumor sites (>1.5 cm). The control group was treated with vehicle only. The mice were weighed three times a week up to days 21-28 to monitor the effects and the same time the tumor volume was determined by measurement of the length (L) and width (W) of the tumor. The tumor volume at day n (TVn) was calculated as TV (mm3)=(L×W^2)/2. The relative tumor volume at day n (RTVn) versus day 0 was expressed according to the following formula: RTVn=TVn/TV0. Tumor regression (T/C(%)) in treated versus control mice was calculated using: T/C(%)=(mean RTV of treated group)/(mean RTV of control group)×100. Xenograft tumors as well as other vital organs of treated and control. The results are shown in Tables 6 and 7 and FIGS. 6 and 7.
Assays were carried out to examine the inhibition of human xenografts growth in vivo by isochaihulactone. Briefly, LNCaP tumor-bearing mice were administered s.c. with vehicle control, 30 mg/kg E-K8, and Z-K8 respectively on days 0-4 for 5 days. The volumes of the tumors were measured. […] Scale bars, […]. Data represent means W S.D. of tumor volume at each time
Assays were carried out to examine the inhibition of human xenografts growth in vivo by Z-K8. Again, LNCaP tumor-bearing mice were administered s.c. with vehicle control, Z-K8 15 mg/kg on days 0-4 for 5 days. The volumes of the tumors were measured. […] Scale bars, […]. Data represent means W S.D. of tumor volume at each time point.

[3] = test system: caspase-3; test: Caspase-3 activity for apoptosis detection (Caspase-Glo); type: cell-based, human; details: LNCaP cells, 24 h
Method: In General, drug can cause tumor apoptosis mediated activate caspase-3 leading to release fluoresce dye to detect by machine. Caspase-3 activity was measured using testis supernatants with the Caspase-Glo Assay System (Promega, Madison, Wis.) according to the manufacturer's instructions. Briefly, 50 μl of the Caspase-Glo buffer was added to 50 μl of tissue supernatants in a 96-well plate and incubated at room temperature for 60 minutes. Luminescence was measured using a Biotek synergy microplate reader (Biotek, Winooski, Vt.). Background activity levels, based on measurements in homogenization buffer only, were measured and subtracted from values in the testis tissue supernatants. All values were normalized to total protein content. Standard curves were used to determine the linearity of the responses.
Assays were carried out to examine whether K8 (Isochaihulactone) increases LNCaP cells caspase-3 activity which leads to tumor cell apoptosis. Briefly, LNCaP cells were treated with different concentrations of Z-K8 (0.25 to 4 μM) for 24 h. […] Thus, Z-K8 can be used in the treatment of prostate cancer.

[4] = test system: gastric cancer cell line NCI-N87; test: MTT growth inhibition assay, NCI-N87; type: cell-based; details: NCI-N87, gastric carcinoma
Method: as §1, §2

[5] = test system: oral cancer cell line OECM-1; test: MTT growth inhibition assay, OECM-1; type: cell-based; details: OECM-1, oral squamous cell carcinoma
Method: as §1, §2

[6] = test system: cleaved caspase-3; test: Immunohistochemical staining of xenograft tumors, cleaved caspase-3; type: in vivo; details: mice treated with 30 mg/kg (FIG. 8A)
Method: Mice xenograft tissue samples were fixed in 10% formalin and embedded in paraffin. After routine rehydration, antigen retrieval and blocking, the sections were incubated in the primary antibody at 4° C. overnight. The primary antibody was recognized by the biotinylated secondary antibody and visualized by vectastain avidin-biotin complex peroxidase system (ABC kit) as well as peroxidase substrate 3,3′-diaminobenzidine kit (DAB kit).
Immunohistochemical staining was conducted using a cleaved caspase-3-specific antibody. […] Similar staining was carried our using an AR-specific antibody.

[7] = 30 mg/kg s.c. days 0-4, day 1 after administration
[8] = 30 mg/kg s.c. days 0-4, day 4 after administration
[9] = 30 mg/kg s.c. days 0-4, day 7 after administration
[10] = 30 mg/kg s.c. days 0-4, day 10 after administration
[11] = 30 mg/kg s.c. days 0-4, day 13 after administration
[12] = 30 mg/kg s.c. days 0-4, day 16 after administration
[13] = 30 mg/kg s.c. days 0-4, day 19 after administration

## COc1cc(/C=C2\C(=O)OCC2Cc2ccc3c(c2)OCO3)cc(OC)c1OC (racemic) [Z-K8, Racemic (Z)-β-(3′,4′-Methylenedioxybenzyl)-α-(3′,4′,5′-trimethoxybenzylidene)-γ-butyrolactone]
[1]
  IC50: 9.8 µM
[2]; 15 mg/kg s.c. days 0-4, day 1 after administration
  Relative tumor volume: 1
[2]; 15 mg/kg s.c. days 0-4, day 4 after administration
  Relative tumor volume: 1.59
[2]; 15 mg/kg s.c. days 0-4, day 7 after administration
  Relative tumor volume: 1.91
[2]; 15 mg/kg s.c. days 0-4, day 10 after administration
  Relative tumor volume: 1.94
[2]; 15 mg/kg s.c. days 0-4, day 13 after administration
  Relative tumor volume: 2.13
[2]; 15 mg/kg s.c. days 0-4, day 16 after administration
  Relative tumor volume: 1.79
[2]; 15 mg/kg s.c. days 0-4, day 19 after administration
  Relative tumor volume: 2.00
[2]; 15 mg/kg s.c. days 0-4, day 21 after administration
  Relative tumor volume: 2.23
[2]; [7]
  Relative tumor volume: 1
  Tumor growth volume (mm^3): 0 mm^3
[2]; [8]
  Relative tumor volume: 1.11
  Tumor growth volume (mm^3): 0 mm^3
[2]; [9]
  Relative tumor volume: 1.12
  Tumor growth volume (mm^3): 90 mm^3
[2]; [10]
  Relative tumor volume: 1.20
  Tumor growth volume (mm^3): 202.5 mm^3
[2]; [11]
  Relative tumor volume: 1.23
  Tumor growth volume (mm^3): 260 mm^3
[2]; [12]
  Relative tumor volume: 1.47
  Tumor growth volume (mm^3): 255 mm^3
[2]; [13]
  Relative tumor volume: 1.23
  Tumor growth volume (mm^3): 200 mm^3
[2]; 30 mg/kg s.c. days 0-4, day 21 after administration
  Relative tumor volume: 1.85
[2]; 30 mg/kg s.c. days 0-4, day 22 after administration
  Tumor growth volume (mm^3): 225 mm^3
[2]; 30 mg/kg s.c. days 0-4, day 25 after administration
  Tumor growth volume (mm^3): 375 mm^3
[2]; 30 mg/kg s.c. days 0-4, day 28 after administration
  Tumor growth volume (mm^3): 435 mm^3
[2]; 30 mg/kg s.c. days 0-4, day 31 after administration
  Tumor growth volume (mm^3): 633.5 mm^3
[2]; LNCaP tumor-bearing mice, 30 mg/kg s.c. days 0-4 (FIG. 6)
  tumor growth inhibition, in words: better tumor growth inhibition than E-form K8
[3]; 0.25 μM
  Caspase-3 Relative activity: 1.347
[3]; 0.5 μM
  Caspase-3 Relative activity: 1.274
[3]; 1 μM
  Caspase-3 Relative activity: 1.784
[3]; 2 μM
  Caspase-3 Relative activity: 2.399
[3]; 4 μM
  Caspase-3 Relative activity: 6.604
[4]
  IC50: > 100 µM
[5]
  IC50: 1 µM
[6]
  expression of cleaved caspase-3 in tumors (IHC) versus control: increased more
